Measurements taken from patent US4743610A, “N-[ω(3-pyridinyl)alkyl]benzamides, useful as thromboxane synthetase enzyme and/or cardioprotective agents” (American Cyanamid Company, priority 1987, dated 1988).
Counter-ions that a name gives are not always drawn.

Legend:
Sprague-Dawley rats = assay: In Vivo Test for the Prevention of Death Due to Infarction; conditions: 3 rats infarcted, 10 mg/kg intraperitoneal 1 h before 10 mg/kg s.c. (-)isoproternol hydrochloride, observed 2.5 hours; for responders at 10 mg/kg: Rattus norvegicus, ip, read-out: % Survival
Description: Beitz, Toxicology and Applied Pharmacology 62, 152-157 (1982) was performed as follows:
In Vivo Test for the Prevention of Death Due to Infarction
Sprague-Dawley rats were pretreated with an intraperitoneal injection of the test compound at 10 mg/kg of body weight. One hour later, a myocardial infarction was induced by injection 10 mg/kg of (-)isoproternol hydrochloride subcutaneously. Each compound was tested in at least three rats. […] The compound is considered "in vivo active" in those groups in which all animals survive the myocardial infarction.

[1] = molecular target: T1, thromboxane synthetase enzyme (Rattus norvegicus, UniProt P49430); assay: Inhibition of thromboxane formation (TXB2 RIA) in washed platelets of spontaneously hypertensive rats; type: cell-based, Okamoto-Aoki spontaneously hypertensive rats (SHR); conditions: SHR platelets, 10 minutes at 37° C.; drug concentration not given
T1 construct: The platelets were isolated by centrifuging the PRP for 10 minutes; endogenous in cells; host or cells: washed platelets from arterial blood of Okamoto-Aoki spontaneously hypertensive rats (SHR; animals from Taconic Farms, Germantown, N.Y.)
T1 sequence (P49430 1-533): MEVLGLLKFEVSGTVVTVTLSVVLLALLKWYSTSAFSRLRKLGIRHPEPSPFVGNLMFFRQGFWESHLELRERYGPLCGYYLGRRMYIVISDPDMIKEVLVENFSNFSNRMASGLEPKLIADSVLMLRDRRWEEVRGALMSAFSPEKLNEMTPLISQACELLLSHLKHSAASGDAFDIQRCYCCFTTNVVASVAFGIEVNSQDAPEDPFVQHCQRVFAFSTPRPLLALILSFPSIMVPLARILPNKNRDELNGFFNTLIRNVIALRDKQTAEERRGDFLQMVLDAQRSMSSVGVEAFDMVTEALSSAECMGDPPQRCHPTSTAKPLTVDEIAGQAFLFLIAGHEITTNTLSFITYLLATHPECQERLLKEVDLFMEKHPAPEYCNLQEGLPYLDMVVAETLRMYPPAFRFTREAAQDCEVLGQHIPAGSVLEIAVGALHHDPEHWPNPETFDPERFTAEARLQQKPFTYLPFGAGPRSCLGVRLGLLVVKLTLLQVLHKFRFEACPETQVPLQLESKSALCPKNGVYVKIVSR
Description: Under urethan anesthesia, […] of arterial blood was collected in one ml. of 3.2% sodium citrate in a polystyrene tube from Okamoto-Aoki spontaneously hypertensive rats (SHR) (Taconic Farms, Germantown, N.Y.) between 19 and 24 weeks in age. The blood was diluted with 3 ml. of cold saline and centrifuged at room temperature for 15 minutes at 460×g. The platelet rich plasma (PRP) was separated. The platelets were isolated by centrifuging the PRP for 10 minutes at 1060 xg and were washed in 4 ml. of cold oxygenated Krebs phosphate buffer, pH 7.4. The chilled platelets recovered from centrifuging at 800×g for 10 minutes were resuspended in oxygenated Krebs phosphate buffer and diluted to contain 4.5-6.0×10^4 platelets/μl. The inhibition of thromboxane (TX) formation was studied by determining the concentration of thromboxane B2 (TXB2), the stable hydrolysis product of TXA2. Assay samples, prepared on ice, contained 200 μl platelet suspension, 50 μl saline, and 50 μl vehicle or drug under study (OKY1581, UK-37248-01, 1-benzylimidazole, or indomethacin). The samples were incubated for 10 minutes at 37° C. in a metabolic shaker. The reaction was terminated by immersing the tubes in an ice bath and adding 50 μl of 0.5M citric acid. The samples were centrifuged for 10 minutes in a refrigerated centrifuge and the supernatants thus obtained were decanted and stored at -20° C. The TXB2 content for each sample was determined by a direct radioimmunoassay (RIA) utilizing a TXB2 specific RIA kit purchased from New England Nuclear, Boston, MA. and expressed as pg TXB2 formed minute^-1 sample^-1, from which the percent inhibition of TXB2 formation was calculated.

Row | Structure (SMILES) | No. of Rats Surviving (Sprague-Dawley rats) | responders at 10 mg/kg (Sprague-Dawley rats) [%] | % Inhibition (of TXB2 formation) [1] [%]
1 | Nc1cc(Cl)ccc1C(=O)NCCCc1cccnc1 [2-Amino-4-chloro-N--[3-(3-pyridinyl)propyl]benzamide, dihydrochloride] | 3 | 100 | 
2 | Cl.Cl.Nc1ccccc1C(=O)NCCCCc1cccnc1 [Example 2, 2-Amino-N-[4-(3-pyridinyl)butyl]benzamide dihydrochloride] | 3 | 100 | 97
3 | Cl.Cl.Nc1c(C(=O)NCCCc2cccnc2)cccc1C(F)(F)F [Example 11, 2-Amino-N-[3-(3-pyridinyl)propyl]-3-(trifluoromethyl)benzamide dihydrochloride] |  |  | 98
4 | O=C(O)c1ccccc1C(=O)NCCCCc1cccnc1 [Example 13, 2-[[[4-(3-Pyridinyl]butyl]amino]carbonyl]benzoic acid] |  |  | 92
5 | Cl.Cl.Nc1ccc(Cl)cc1C(=O)NCCCCc1cccnc1 [Example 3, 2-Amino-5-chloro-N-[4-(3-pyridinyl)butyl]benzamide dihydrochloride] | 3 | 100 | 
6 | Cc1ccc(N)c(C(=O)NCCCCc2cccnc2)c1.Cl.Cl [Example 7, 2-Amino-5-methyl-N-[4-(3-pyridinyl)butyl]benzamide dihydrochloride] | 3 | 100 | 100
7 | CNc1ccc(Cl)cc1C(=O)NCCCCc1cccnc1.Cl.Cl [Example 4, 5-Chloro-2-(methylamino)-N-[4-(3-pyridinyl)butyl]benzamide dihydrochloride] |  |  | 99
8 | Nc1ccccc1C(=O)NCCc1cccnc1 [Example 1, 2-Amino-N-[2-(3-pyridinyl)ethyl]benzamide] | 3 | 100 | 
9 | Nc1ccc(Cl)cc1C(=O)NCCCc1cccnc1 [2-Amino-5-chloro-N--[3-(3-pyridinyl)propyl]benzamide dihydrochloride] |  |  | 98
10 | Cl.Cl.Nc1cc(Cl)ccc1C(=O)NCCCCc1cccnc1 [Example 6, 2-Amino-4-Chloro-N-[4-(3-pyridinyl)butyl]benzamide dihydrochloride] | 3 | 100 | 
11 | O=C(O)c1ccccc1C(=O)NCCc1cccnc1 [Example 12, 2-[[[2-(3-Pyridinyl)ethyl]amino]carbonyl]benzoic acid] | 3 | 100 | 
12 | Nc1cc(Cl)ccc1C(=O)NCCCc1cccnc1 [Example 9, 2-Amino-4-chloro-N-[3-(3-pyridinyl)propyl]benzamide] |  |  | 95
13 | O=C(O)c1ccc(Cl)cc1C(=O)NCCCCc1cccnc1 [Example 14, 4-Chloro-2-[[[4-(3-pyridinyl)butyl]amino]carbonyl]benzoic acid] | 3 | 100 | 100
